These results are taken from ChEMBL document CHEMBL1150708, “Isolation and bioactivity of new tanshinones” (1987).

Type in all cases: functional
Assay [1] in a line: Antiplatelet activity against platelet assessed as inhibition of collagen-induced platelet aggregation at 5 ug/ml by turbidimetry.
Assay [2] can be described thus: Antiplatelet activity against platelet assessed as inhibition of ADP-induced platelet aggregation at 10 ug/ml by turbidimetry.
Assay [3] in a line: Antiplatelet activity against platelet assessed as inhibition of collagen-induced platelet aggregation at 10 ug/ml by turbidimetry.
A short description of assay [4]: Antiplatelet activity against platelet assessed as inhibition of ADP-induced platelet aggregation at 50 ug/ml by turbidimetry.
Assay [5] is described as follows: Antiplatelet activity against platelet assessed as inhibition of collagen-induced platelet aggregation at 50 ug/ml by turbidimetry.

SMILES strings stand for the structures.

In general, inhibition refers to the share of the control response that was lost under treatment. Consider `Cc1coc2c1C(=O)c1ccc3c(c1C2=O)CCCC3(C)CO` (stereo not given) [ISOTANSHINONE IIB], for which, in assay [1], the inhibition at 5 µg/mL was 4%. The inhibition at 10 µg/mL is 40% in assay [2] and 81% in assay [3].
On to `CC(=O)Oc1ccccc1C(=O)O` [ASPIRIN], for which the inhibition at 50 µg/mL in assay [4] was found to be 74%; in assay [5], 72%.
